Experiments:
RANKL = molecular target: T1, RANKL (Homo sapiens, UniProt O14788); assay: SPR kinetics (Biacore S200), RANKL amine-coupled on CM5 chip; assay type: binding
T1 construct: gene TNFSF11; extracellular domain
T1 sequence (O14788 69-317 limits assumed): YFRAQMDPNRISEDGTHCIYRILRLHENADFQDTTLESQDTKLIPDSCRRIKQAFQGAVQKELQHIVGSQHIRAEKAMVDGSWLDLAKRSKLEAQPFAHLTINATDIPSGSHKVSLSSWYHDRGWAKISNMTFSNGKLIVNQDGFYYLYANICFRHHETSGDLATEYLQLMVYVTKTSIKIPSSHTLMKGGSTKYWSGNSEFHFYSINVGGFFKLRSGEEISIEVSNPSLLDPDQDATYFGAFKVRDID

RANK = molecular target: T2, RANK (Homo sapiens, UniProt Q9Y6Q6); assay: SPR kinetics (Biacore S200), RANK amine-coupled on CM5 chip; assay type: binding
T2 construct: gene TNFRSF11A; extracellular domain
T2 sequence (Q9Y6Q6 30-212 limits assumed): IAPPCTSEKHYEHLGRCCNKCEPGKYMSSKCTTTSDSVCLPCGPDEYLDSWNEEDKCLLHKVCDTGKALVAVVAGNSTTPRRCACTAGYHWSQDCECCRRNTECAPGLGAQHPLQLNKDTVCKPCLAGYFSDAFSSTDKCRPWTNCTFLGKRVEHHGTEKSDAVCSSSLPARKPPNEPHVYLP

## COc1cccc2c1C[C@@H]1c3c(cc4c(c3-2)OCO4)CCN1C [SA, Stephanine]
RANKL
  Kd: 76.5 µM
RANK
  Kd: 3.7 µM

From publication PMC11619157, “Stephanine Protects Against Osteoporosis by Suppressing Osteoclastogenesis via Inhibition of the RANKL—RANK Interaction” (Journal of Cellular and Molecular Medicine, 2024)
